Measurements: US20170081368A1, “PEPTIDES AS OXYTOCIN AGONISTS” (Hoffmann-La Roche Inc., priority 2014, published 2017)
Where a SMILES comes first, the peptide text is derived from it.

Molecular target: T1, human Oxytocin (OTR) receptor (Homo sapiens, UniProt P30559)
T1 construct: expressed in transfected cells
T1 sequence (P30559 1-389): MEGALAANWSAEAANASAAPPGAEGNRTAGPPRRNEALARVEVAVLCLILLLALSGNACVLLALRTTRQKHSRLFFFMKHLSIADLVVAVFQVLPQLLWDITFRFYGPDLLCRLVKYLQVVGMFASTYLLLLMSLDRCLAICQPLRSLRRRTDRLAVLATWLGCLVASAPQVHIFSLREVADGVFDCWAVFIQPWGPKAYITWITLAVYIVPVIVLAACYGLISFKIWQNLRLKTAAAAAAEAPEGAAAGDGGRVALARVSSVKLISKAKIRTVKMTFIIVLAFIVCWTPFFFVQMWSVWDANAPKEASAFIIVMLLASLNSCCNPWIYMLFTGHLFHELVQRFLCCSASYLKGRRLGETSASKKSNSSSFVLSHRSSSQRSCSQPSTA
Assay: Calcium flux assay (FLIPR) in CHO cells expressing human OTR
Type: cell-based
Details: for Emax: CHO, maximum response normalized to endogenous full agonist = 100%, read-out: hOT efficacy; for EC50: agonist mode, CHO cells, calcium flux FLIPR, read-out: hOT EC50
Text: Chines Hamster Ovary (CHO) cells were transfected with expression plasmids encoding either the human Vla, the human Oxytocin (OTR) or the humanV2 receptor, the later in combination with the chimeric Gqs5 G protein to redirect the signal to Calcium flux. Stable cells were cloned by limiting dilution to yield monoclonal cell lines expressing either human Vla, human V2+Gqs5 or human OTR receptors and selected based on functional responses detected on a fluorometric imaging plate reader (FLIPR) detecting Calcium flux in the cell after receptor activation. The stable cell lines were grown in F-12 K Nutrient Mixture (Kaighns Modification), containing 10% foetal bovine serum (FBS), 1% penicillin-streptomycin, 1% L-glutamate, 200 ug/ml Geneticin at 37° C. in a 10% CO2 incubator at 95% humidity.
Calcium Flux Assays Using Fluorescent Imaging (Fluorometric Imaging Plate Reader, FLIPR)
On the afternoon before the assay, cells were plated at a density of 50,000 cells/well into black 96 well plates with clear bottoms to allow cell inspection and fluorescence measurements from the bottom of each well. The density of cells was sufficient to yield a confluent monolayer the next day. Hanks balanced salt solution, without phenol red, containing 20 mM HEPES (pH 7.3) and 2.5 mM probenecid (assay buffer) was prepared fresh for each experiment. Compound dilutions were made using a Beckman Biomek 2000 laboratory automation workstation, in assay buffer containing 1% DMSO. The dye-loading buffer consisted of a final concentration of 2 μM Fluo-4-AM (dissolved in DMSO and pluronic acid) in assay buffer. The existing culture media was removed from the wells and 100 μl of the dye-loading buffer was added to each well and incubated for approximately 60 min at 37° C. in a 5% CO2 incubator at 95% humidity. Once dye-loaded, the cells were washed thoroughly on an Embla cell washer with the assay buffer to remove any unincorporated dye. Exactly 100 μl assay buffer was left in each well.
Each 96 well plate containing dye-loaded cells was placed into the FLIPR machine and the laser intensity set to a suitable level to detect low basal fluorescence. To test compounds as agonists, 25 μl diluted compound was added to the plate 10 seconds into the fluorescent measurements and fluorescent response was recorded for 5 minutes. The fluorescence data was normalized to the endogenous full agonist dose-response set at 100% for the maximum response and 0% for the minimum. Each agonist concentration-response curve was constructed using a four parameter logistic equation with Microsoft Excel XLFit as follows: Y=Minimum+((Maximum−Minimum)/(1+10^(LogEC50−X)nH)), where y is the % normalized fluorescence, minimum is the minimum y, maximum is the maximum y, log EC50 is the log10 concentration which produces 50% of the maximum induced fluorescence, x is the log10 of the concentration of the agonist compound and H is the slope of the curve (the Hill Coefficient). The maximum value gives the efficacy of the agonist test compound in percentage. The concentration of agonist that produced a half-maximal response is represented by the EC50 value, the logarithm of which yielded the pEC50 value.

| Structure (SMILES) | Emax | EC50 |
| --- | --- | --- |
| CC[C@H](C)[C@@H]1NC(=O)[C@H](Cc2ccc(O)cc2)NC(=O)CCS(=O)(=O)CC[C@@H](C(=O)N2CC(F)(F)C[C@H]2C(=O)N[C@@H](CC(C)C)C(=O)NCC(N)=O)NC(=O)[C@H](CC(N)=O)NC(=O)[C@H](CCC(N)=O)NC1=O [Example 3] (HELM PEPTIDE1{Y.I.Q.N.[O=C([C@H](CCS(=O)(=O)CCC(=O)[*:3])N[*:1])[*:2]].[O=C([C@@H]1CC(F)(F)CN1[*:1])[*:2]].L.G.[am]}$PEPTIDE1,PEPTIDE1,1:R1-5:R3$$$V2.0) | 144% | 1.7 nM |
| CC[C@H](C)[C@@H]1NC(=O)[C@H](Cc2ccc(O)cc2)NC(=O)CCS(=O)(=O)CC[C@@H](C(=O)N2CC[C@H]2C(=O)N[C@@H](CC(C)C)C(=O)NCC(N)=O)NC(=O)[C@H](CC(N)=O)NC(=O)[C@H](CCC(N)=O)NC1=O [Example 4] (HELM PEPTIDE1{Y.I.Q.N.[O=C([C@H](CCS(=O)(=O)CCC(=O)[*:3])N[*:1])[*:2]].[O=C([C@@H]1CCN1[*:1])[*:2]].L.G.[am]}$PEPTIDE1,PEPTIDE1,1:R1-5:R3$$$V2.0) | 128% | 3 nM |
| CC[C@H](C)[C@@H]1NC(=O)[C@H](Cc2ccc(O)cc2)NC(=O)CCS(=O)(=O)CC[C@@H](C(=O)N2CCCC[C@H]2C(=O)N[C@@H](CC(C)C)C(=O)NCC(N)=O)NC(=O)[C@H](CC(N)=O)NC(=O)[C@H](CCC(N)=O)NC1=O [Example 5] (HELM PEPTIDE1{Y.I.Q.N.[O=C([C@H](CCS(=O)(=O)CCC(=O)[*:3])N[*:1])[*:2]].[O=C([C@@H]1CCCCN1[*:1])[*:2]].L.G.[am]}$PEPTIDE1,PEPTIDE1,1:R1-5:R3$$$V2.0) | 130% | 3.8 nM |
| CC[C@H](C)[C@@H]1NC(=O)[C@H](Cc2ccc(O)cc2)NC(=O)CCS(=O)(=O)CC[C@@H](C(=O)N2C[C@@H](F)C[C@H]2C(=O)N[C@@H](CC(C)C)C(=O)NCC(N)=O)NC(=O)[C@H](CC(N)=O)NC(=O)[C@H](CCC(N)=O)NC1=O [Example 6] (HELM PEPTIDE1{Y.I.Q.N.[O=C([C@H](CCS(=O)(=O)CCC(=O)[*:3])N[*:1])[*:2]].[O=C([C@@H]1C[C@H](F)CN1[*:1])[*:2]].L.G.[am]}$PEPTIDE1,PEPTIDE1,1:R1-5:R3$$$V2.0; C-terminus assumed; bridges inferred) | 145% | – |
| CC[C@H](C)[C@@H]1NC(=O)[C@H](Cc2ccc(O)cc2)NC(=O)CCS(=O)(=O)CC[C@@H](C(=O)N2C[C@@H](F)C[C@H]2C(=O)N[C@@H](CC(C)C)C(=O)NCC(N)=O)NC(=O)[C@H](CC(N)=O)NC(=O)[C@H](CCC(N)=O)NC1=O [Example 7] (HELM PEPTIDE1{Y.I.Q.N.[O=C([C@H](CCS(=O)(=O)CCC(=O)[*:3])N[*:1])[*:2]].[O=C([C@@H]1C[C@H](F)CN1[*:1])[*:2]].L.G.[am]}$PEPTIDE1,PEPTIDE1,1:R1-5:R3$$$V2.0) | 141% | 2.6 nM |
| CC[C@H](C)[C@@H]1NC(=O)[C@H](Cc2ccc(O)cc2)NC(=O)CCS(=O)(=O)CC[C@@H](C(=O)N2C[C@H](O)C[C@H]2C(=O)N[C@@H](CC(C)C)C(=O)NCC(N)=O)NC(=O)[C@H](CC(N)=O)NC(=O)[C@H](CCC(N)=O)NC1=O [Example 8] (HELM PEPTIDE1{Y.I.Q.N.[O=C([C@H](CCS(=O)(=O)CCC(=O)[*:3])N[*:1])[*:2]].[Hyp].L.G.[am]}$PEPTIDE1,PEPTIDE1,1:R1-5:R3$$$V2.0) | 129% | 0.8 nM |
| CCCC[C@H](NC(=O)CN(C)C(=O)[C@@H]1CCS(=O)(=O)CCC(=O)N[C@@H](Cc2ccc(O)cc2)C(=O)N[C@@H]([C@@H](C)CC)C(=O)N[C@@H](CCC(N)=O)C(=O)N[C@@H](CC(N)=O)C(=O)N1)C(=O)NCC(N)=O [Example 9] (HELM PEPTIDE1{Y.I.Q.N.[O=C([C@H](CCS(=O)(=O)CCC(=O)[*:3])N[*:1])[*:2]].[Sar].[Nle].G.[am]}$PEPTIDE1,PEPTIDE1,1:R1-5:R3$$$V2.0) | 104% | 1 nM |
| CC[C@H](C)[C@@H]1NC(=O)[C@H](Cc2ccc(O)cc2)NC(=O)CCS(=O)(=O)CC[C@@H](C(=O)N(C)CC(=O)NC(C)(C)C(=O)NCC(N)=O)NC(=O)[C@H](CC(N)=O)NC(=O)[C@H](CCC(N)=O)NC1=O [Example 10] (HELM PEPTIDE1{Y.I.Q.N.[O=C([C@H](CCS(=O)(=O)CCC(=O)[*:3])N[*:1])[*:2]].[Sar].[Aib].G.[am]}$PEPTIDE1,PEPTIDE1,1:R1-5:R3$$$V2.0; C-terminus assumed; bridges inferred) | 100% | – |
| CC[C@H](C)[C@@H]1NC(=O)[C@H](Cc2ccc(O)cc2)NC(=O)CCS(=O)(=O)CC[C@@H](C(=O)N(C)CC(=O)N[C@@H](CC2CCCCC2)C(=O)NCC(N)=O)NC(=O)[C@H](CC(N)=O)NC(=O)[C@H](CCC(N)=O)NC1=O [Example 11] (HELM PEPTIDE1{Y.I.Q.N.[O=C([C@H](CCS(=O)(=O)CCC(=O)[*:3])N[*:1])[*:2]].[Sar].[Cha].G.[am]}$PEPTIDE1,PEPTIDE1,1:R1-5:R3$$$V2.0; C-terminus assumed; bridges inferred) | 115% | – |
| CC[C@H](C)[C@@H]1NC(=O)[C@H](Cc2ccc(O)cc2)NC(=O)CCS(=O)(=O)CC[C@@H](C(=O)N(C)CC(=O)N[C@H](C(=O)NCC(N)=O)C(C)C)NC(=O)[C@H](CC(N)=O)NC(=O)[C@H](CCC(N)=O)NC1=O [Example 12] (HELM PEPTIDE1{Y.I.Q.N.[O=C([C@H](CCS(=O)(=O)CCC(=O)[*:3])N[*:1])[*:2]].[Sar].V.G.[am]}$PEPTIDE1,PEPTIDE1,1:R1-5:R3$$$V2.0) | 112% | 1.4 nM |
| CC[C@H](C)[C@H](NC(=O)CN(C)C(=O)[C@@H]1CCS(=O)(=O)CCC(=O)N[C@@H](Cc2ccc(O)cc2)C(=O)N[C@@H]([C@@H](C)CC)C(=O)N[C@@H](CCC(N)=O)C(=O)N[C@@H](CC(N)=O)C(=O)N1)C(=O)NCC(N)=O [Example 13] (HELM PEPTIDE1{Y.I.Q.N.[O=C([C@H](CCS(=O)(=O)CCC(=O)[*:3])N[*:1])[*:2]].[Sar].I.G.[am]}$PEPTIDE1,PEPTIDE1,1:R1-5:R3$$$V2.0; C-terminus assumed; bridges inferred) | 117% | – |
| CCC[C@H](NC(=O)CN(C)C(=O)[C@@H]1CCS(=O)(=O)CCC(=O)N[C@@H](Cc2ccc(O)cc2)C(=O)N[C@@H]([C@@H](C)CC)C(=O)N[C@@H](CCC(N)=O)C(=O)N[C@@H](CC(N)=O)C(=O)N1)C(=O)NCC(N)=O [Example 14] (HELM PEPTIDE1{Y.I.Q.N.[O=C([C@H](CCS(=O)(=O)CCC(=O)[*:3])N[*:1])[*:2]].[Sar].[Nva].G.[am]}$PEPTIDE1,PEPTIDE1,1:R1-5:R3$$$V2.0; C-terminus assumed; bridges inferred) | 117% | 0.7 nM |
| CC[C@H](C)[C@@H]1NC(=O)[C@H](Cc2ccc(O)cc2)NC(=O)CCS(=O)(=O)CC[C@@H](C(=O)N(C)CC(=O)N[C@@H](CCC(C)C)C(=O)NCC(N)=O)NC(=O)[C@H](CC(N)=O)NC(=O)[C@H](CCC(N)=O)NC1=O [Example 15] (HELM PEPTIDE1{Y.I.Q.N.[O=C([C@H](CCS(=O)(=O)CCC(=O)[*:3])N[*:1])[*:2]].[Sar].[CC(C)CC[C@H](N[*:1])C(=O)[*:2]].G.[am]}$PEPTIDE1,PEPTIDE1,1:R1-5:R3$$$V2.0) | 107% | 1 nM |
| CC[C@H](C)[C@@H]1NC(=O)[C@H](Cc2ccc(O)cc2)NC(=O)CCS(=O)(=O)CC[C@@H](C(=O)N(C)CC(=O)N[C@@H](Cc2ccccc2)C(=O)NCC(N)=O)NC(=O)[C@H](CC(N)=O)NC(=O)[C@H](CCC(N)=O)NC1=O [Example 16] (HELM PEPTIDE1{Y.I.Q.N.[O=C([C@H](CCS(=O)(=O)CCC(=O)[*:3])N[*:1])[*:2]].[Sar].F.G.[am]}$PEPTIDE1,PEPTIDE1,1:R1-5:R3$$$V2.0) | 104% | 5.6 nM |
